{"source": "paper PMC7143421", "about": "(Marine Drugs, 2020)", "key": {"NR2A": {"target": "NR2A (Homo sapiens, UniProt Q12879)", "sequence (Q12879 whole entry, looked up)": "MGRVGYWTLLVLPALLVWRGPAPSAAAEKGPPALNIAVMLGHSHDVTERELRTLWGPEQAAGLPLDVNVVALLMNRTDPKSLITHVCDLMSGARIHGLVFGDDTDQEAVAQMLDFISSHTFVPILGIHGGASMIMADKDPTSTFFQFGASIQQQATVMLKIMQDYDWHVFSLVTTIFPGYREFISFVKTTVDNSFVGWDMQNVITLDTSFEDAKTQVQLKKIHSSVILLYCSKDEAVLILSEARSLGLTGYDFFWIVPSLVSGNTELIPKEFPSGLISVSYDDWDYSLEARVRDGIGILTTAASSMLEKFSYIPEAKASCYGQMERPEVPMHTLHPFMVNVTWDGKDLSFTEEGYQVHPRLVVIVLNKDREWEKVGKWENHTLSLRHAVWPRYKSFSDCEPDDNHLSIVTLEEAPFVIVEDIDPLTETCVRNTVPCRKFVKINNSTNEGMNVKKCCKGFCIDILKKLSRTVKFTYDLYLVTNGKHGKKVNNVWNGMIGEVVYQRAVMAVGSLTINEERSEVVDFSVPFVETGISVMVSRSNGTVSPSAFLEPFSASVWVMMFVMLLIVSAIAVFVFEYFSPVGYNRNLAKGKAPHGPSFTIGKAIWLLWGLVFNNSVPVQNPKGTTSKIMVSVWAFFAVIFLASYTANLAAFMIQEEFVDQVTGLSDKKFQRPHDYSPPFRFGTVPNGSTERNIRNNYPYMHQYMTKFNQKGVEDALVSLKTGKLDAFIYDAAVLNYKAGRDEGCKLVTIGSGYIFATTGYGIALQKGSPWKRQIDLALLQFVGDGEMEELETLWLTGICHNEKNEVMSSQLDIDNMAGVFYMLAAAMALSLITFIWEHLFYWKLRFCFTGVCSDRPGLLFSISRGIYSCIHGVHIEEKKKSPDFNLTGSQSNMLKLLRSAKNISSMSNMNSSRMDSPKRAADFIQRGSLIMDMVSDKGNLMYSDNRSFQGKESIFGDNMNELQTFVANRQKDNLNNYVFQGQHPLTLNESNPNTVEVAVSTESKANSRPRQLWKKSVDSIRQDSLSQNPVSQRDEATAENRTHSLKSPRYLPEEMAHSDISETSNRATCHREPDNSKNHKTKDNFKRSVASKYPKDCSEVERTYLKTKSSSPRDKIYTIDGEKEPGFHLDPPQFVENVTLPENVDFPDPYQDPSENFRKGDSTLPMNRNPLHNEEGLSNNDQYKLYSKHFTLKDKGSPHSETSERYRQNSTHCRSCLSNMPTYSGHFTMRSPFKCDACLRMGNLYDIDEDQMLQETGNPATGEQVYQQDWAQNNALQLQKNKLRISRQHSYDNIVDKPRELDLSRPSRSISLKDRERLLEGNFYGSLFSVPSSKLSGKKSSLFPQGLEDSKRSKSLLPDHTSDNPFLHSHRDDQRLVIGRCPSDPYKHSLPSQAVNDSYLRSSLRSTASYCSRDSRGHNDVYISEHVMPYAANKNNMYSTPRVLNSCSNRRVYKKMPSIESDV", "format": "cell-based"}, "human NR2B [1]": {"target": "T1, human NR2B (Homo sapiens, UniProt Q13224)", "T1 sequence (Q13224 whole entry, looked up)": "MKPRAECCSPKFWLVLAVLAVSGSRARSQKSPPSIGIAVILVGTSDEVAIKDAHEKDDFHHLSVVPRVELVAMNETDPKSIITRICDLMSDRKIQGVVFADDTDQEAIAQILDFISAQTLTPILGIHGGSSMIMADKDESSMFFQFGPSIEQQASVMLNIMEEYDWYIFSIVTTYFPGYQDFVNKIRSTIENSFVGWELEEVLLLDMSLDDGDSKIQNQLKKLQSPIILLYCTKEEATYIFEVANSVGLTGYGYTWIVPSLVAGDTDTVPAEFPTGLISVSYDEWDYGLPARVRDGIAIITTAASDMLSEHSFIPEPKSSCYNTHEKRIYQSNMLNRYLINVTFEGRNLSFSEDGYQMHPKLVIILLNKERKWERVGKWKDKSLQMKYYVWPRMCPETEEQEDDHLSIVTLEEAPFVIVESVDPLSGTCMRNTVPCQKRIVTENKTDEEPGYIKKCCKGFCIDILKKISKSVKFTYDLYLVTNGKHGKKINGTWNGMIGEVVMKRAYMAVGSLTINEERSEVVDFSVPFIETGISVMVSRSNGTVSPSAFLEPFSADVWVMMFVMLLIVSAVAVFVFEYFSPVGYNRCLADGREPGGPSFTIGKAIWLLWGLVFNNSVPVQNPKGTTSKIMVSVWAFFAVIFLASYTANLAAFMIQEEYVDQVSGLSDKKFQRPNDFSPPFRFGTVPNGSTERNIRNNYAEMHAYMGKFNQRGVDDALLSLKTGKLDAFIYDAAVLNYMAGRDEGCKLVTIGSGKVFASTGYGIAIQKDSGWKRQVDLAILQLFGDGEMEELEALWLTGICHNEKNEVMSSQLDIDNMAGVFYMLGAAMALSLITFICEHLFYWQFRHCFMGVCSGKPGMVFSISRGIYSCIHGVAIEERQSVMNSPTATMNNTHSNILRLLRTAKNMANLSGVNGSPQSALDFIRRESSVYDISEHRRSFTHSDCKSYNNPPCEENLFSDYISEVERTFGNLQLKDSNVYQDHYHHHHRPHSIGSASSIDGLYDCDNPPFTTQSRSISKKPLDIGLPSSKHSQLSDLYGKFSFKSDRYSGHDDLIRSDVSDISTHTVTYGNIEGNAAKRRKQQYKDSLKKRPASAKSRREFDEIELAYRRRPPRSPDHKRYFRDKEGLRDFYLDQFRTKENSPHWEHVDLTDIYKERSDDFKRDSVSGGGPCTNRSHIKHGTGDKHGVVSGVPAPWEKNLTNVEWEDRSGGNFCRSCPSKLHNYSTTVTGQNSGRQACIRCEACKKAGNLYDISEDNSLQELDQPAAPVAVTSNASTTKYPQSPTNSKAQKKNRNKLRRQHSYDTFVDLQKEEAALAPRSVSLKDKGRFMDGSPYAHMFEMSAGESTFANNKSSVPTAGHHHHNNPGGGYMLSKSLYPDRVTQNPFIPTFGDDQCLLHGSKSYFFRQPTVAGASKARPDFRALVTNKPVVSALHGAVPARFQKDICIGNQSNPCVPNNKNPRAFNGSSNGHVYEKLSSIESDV"}, "human NR2B [2]": {"target": "T1, human NR2B", "assay": "cell-based"}}, "note": "Square brackets hold non-standard residues; d marks the D form. Peptide text beside a SMILES is read from it. Hyp = O=C(O)[C@@H]1C[C@@H](O)CN1", "data": [{"compound": "CC(C)C[C@H](NC(=O)[C@H](Cc1ccc(O)cc1)NC(=O)[C@H](Cc1ccc(O)cc1)NC(=O)[C@@H](N)CC(N)=O)C(=O)N[C@@H](Cc1ccc(O)cc1)C(=O)N1C[C@H](O)C[C@H]1C(=O)N[C@@H](C)C(=O)N[C@@H](CCCNC(=N)N)C(=O)N1C[C@H](O)C[C@H]1C(=O)N[C@@H](CCC(=O)O)C(=O)N[C@@H](CC(N)=O)C(=O)N[C@@H](CO)C(=O)N[C@H](Cc1c[nH]c2ccccc12)C(=O)N[C@@H](Cc1c[nH]c2ccccc12)C(=O)N[C@H](C(=O)O)[C@@H](C)O", "note": "[conotoxin-Ac1] (H-NYYLY[Hyp]AR[Hyp]ENS[dW]WT-OH)", "values": [{"measurement": "The Inhibition of Currents (%) NR2A", "setting": "NR2A", "value": 7.22, "unit": "%"}, {"measurement": "The Inhibition of Currents (%) NR2B", "setting": "human NR2B [1]", "value": 51.69, "unit": "%"}, {"measurement": "IC50", "setting": "human NR2B [2]", "value": "8.22 ± 0.022", "unit": "µM"}]}]}
